From publication PMC4763182 (Scientific Reports, 2016)

Tests used:
[1] = tested on: Stx2 cytotoxicity toward HeLa cells
[2] = tested on: recombinant histidine-tagged Stx2B subunit (2BH); type: binding, Escherichia coli
[3] = tested on: binding of 125I-Stx2 to HeLa cells; type: cell-based

## HNPMSFPTPRLY [HN-11]
[1]
  inhibitory effect on Stx2 cytotoxicity: Almost no inhibitory effect
[2]
  concentration dependence of binding to 2BH: did not significantly change
[3]
  inhibitory effect on the uptake of Stx2: almost no inhibitory effect
